Assays:
[1] = test system: Cotton Aphid (Aphis gossypii); test: Insecticidal test for cotton aphid in a foliar spray assay; type: in vivo; details: 72 h, 200 ppm foliar spray on squash or cotton seedlings, live aphids counted after three days, Abbott's corrected % control, read-out: APHIGO % Ctrl @ 200 ppm
Experimental: Squash or cotton seedlings with fully expanded cotyledon leaves were trimmed to one cotyledon per plant and infested with wingless adult and nymph stage cotton aphid (APHIGO) one day prior to chemical application. Each plant was examined before chemical application to ensure uniform infestation (ca. 30-70 aphids per plant). Compounds (2 mg) were dissolved in 2 mL of acetone/methanol (1:1) solvent, forming stock solutions of 1000 ppm. The stock solutions were diluted 5× with 0.025% Tween 20 in H2O to obtain a solution at 200 ppm. A hand-held Devilbiss aspirator type sprayer was used to apply the spray solutions until runoff to both sides of the squash cotyledon leaves. Four plants (4 replications) were used for each concentration of each compound. Reference plants (solvent check) were sprayed with the diluent only. Treated plants were held in a holding room for three days at approximately 25° C. and 40% RH before the number of live cotton aphids on each plant was recorded. Insecticidal activity data presented in Table 3 were generated by using Abbott's correction formula: Corrected%Control=100*(X−Y)/X • where X=No. of live aphids on solvent check plants • Y=No. of live aphids on treated plants

[2] = test system: Green Peach Aphid (Myzus persicae); test: Insecticidal test for green peach aphid in foliar spray assay; type: in vivo; details: 72 h, 200 ppm foliar spray on cabbage seedlings, live aphids counted after three days, Abbott's corrected % control, read-out: MYZUPE % Ctrl @ 200 ppm
Experimental: Certain molecules disclosed in this document were tested against MYZUPE using procedures described in the following example. In the reporting of the results, the “MYZUPE, APHIGO and BEMITA Rating Table” was used (See Table Section).
Cabbage seedlings grown in 3-inch pots, with 2-3 small (3-5 cm) true leaves, were used as test substrate. The seedlings were infested with 20-50 green peach aphids (wingless adult and nymph stage) one day prior to chemical application. Four pots with individual seedlings were used for each treatment. Compounds (2 mg) were dissolved in 2 mL of acetone/methanol (1:1) solvent, forming stock solutions of 1000 ppm. The stock solutions were diluted 5× with 0.025% Tween 20 in H2O to obtain the test solution at 200 ppm. A hand-held Devilbiss sprayer was used for spraying a solution to both sides of cabbage leaves until runoff. Reference plants (solvent check) were sprayed with the diluent only. Treated plants were held in a holding room for three days at approximately 25° C. and 40% relative humidity (RH) prior to grading. Evaluation was conducted by counting the number of live aphids per plant under a microscope. Insecticidal activity data presented in Table 3 were generated by using Abbott's correction formula: Corrected%Control=100*(X−Y)/X • where X=No. of live aphids on solvent check plants • Y=No. of live aphids on treated plants

[3] = test system: Sweetpotato Whitefly (Bemisia tabaci); test: Insecticidal test for sweetpotato whitefly in foliar spray assay; type: in vivo; details: 200 ppm foliar spray on cotton plants infested with eggs, live nymphs counted after 8-9 days, Abbott's corrected % control, read-out: BEMITA % Ctrl @ 200 ppm
Experimental: Cotton plants were used as test substrate and were grown in 3-inch pots and pruned until only 1 small (3-5 cm) true leaf remained. The plants were then placed in a room with whitefly ([…]) adults and allowed to be infested with eggs. After a 2-3 day egg-laying period, plants were taken from the adult whitefly room and the adults were removed from the leaves using compressed air delivered through a hand-held Devilbiss sprayer (23 psi). Plants infested with eggs (100-300 eggs per plant) were placed in a controlled-environment room for 5-6 days at 82° F. and 50% RH until approximately 50% egg hatch. Four cotton plants (4 replicates) were used for each treatment. Compounds (2 mg) were dissolved in 1 mL of acetone solvent, forming stock solutions of 2000 ppm. The stock solutions were diluted 10× with 0.025% Tween 20 in H2O to obtain the test solution of 200 ppm. A hand-held Devilbiss sprayer was used for spraying a solution to both sides of cotton leaf until runoff. Reference plants (solvent check) were sprayed with the diluent only. Treated plants were held in a holding room for 8-9 days at approximately 82° F. and 50% RH prior to grading. Evaluation was conducted by counting the number of live nymphs per plant under a microscope. Insecticidal activity data presented in Table 3 were generated by using Abbott's correction formula: Corrected%Control=100*(X-Y)/X • where X=No. of live nymphs on solvent check plants • Y=No. of live nymphs on treated plants […]

| Compound | inhibition at 200 ppm [1] [%] | inhibition at 200 ppm [2] [%] | inhibition at 200 ppm [3] [%] | melting point [°C] |
| --- | --- | --- | --- | --- |
| CN(C(=O)C(C)(C)C/S(C)=N/C#N)c1nnc(-c2cccnc2)s1 (stereo not shown) [Compound 39, N-2,2-trimethyl-3-(methyl-N-cyano-sulfiliminyl)-N-(5-(pyridin-3-yl)-1,3,4-thiadiazol-2-yl)propanamide] | 80 to 100 | 80 to 100 | 0 to 80 | 42 to 52 |
| COCCCC(=O)N(C)c1nnc(-c2cccnc2)s1 [Compound 19] | 80 to 100 | 0 to 80 | 0 to 80 | 92 to 95 |
| CSCCC(=O)Nc1nnc(-c2cccnc2)s1 [Compound 7] | 0 to 80 | 0 to 80 | 0 to 80 | 211 to 212 |
| CSCC(C)(C)C(=O)N(C)c1nnc(-c2cccnc2)s1 [Compound 24, N-2,2-trimethyl-3-(methylthio)-N-(5-(pyridin-3-yl)-1,3,4-thiadiazol-2-yl)propanamide] | 80 to 100 | 80 to 100 | 0 to 80 | 89 to 91 |
| COCCNC(=S)N(C)c1nnc(-c2cccnc2)s1 [Compound 95] |  | 80 to 100 | 0 to 80 | 118 to 121 |
| CN(C(=O)CCSCCc1ccccc1)c1nnc(-c2cccnc2)s1 [Compound 5] | 0 to 80 | 0 to 80 | 0 to 80 | 105 to 108 |
| CN(C(=O)CCS(C)(=O)=O)c1nnc(-c2cccnc2)s1 [Compound 20, N-methyl-3-(methylsulfonyl)-N-(5-(pyridin-3-yl)-1,3,4-thiadiazol-2-yl)propanamide] | 80 to 100 | 80 to 100 | 0 to 80 | 199 to 201 |
| CSCCOC(=O)N(C)c1nnc(-c2cccnc2)s1 [Compound 50, 2-(Methylthio)ethyl methyl(5-(pyridin-3-yl)-1,3,4-thiadiazol-2-yl)carbamate] | 80 to 100 | 80 to 100 | 0 to 80 | 126 to 128 |
| CCN(C(=O)CCSC)c1nnc(-c2cccnc2)s1 [Compound 9] | 80 to 100 | 80 to 100 | 0 to 80 | 116 to 120 |
| CCOC(=S)N(C)c1nnc(-c2cncc(F)c2)s1 [Compound 80, [5-(5-fluoro-pyridin-3-yl)-[1,3,4]thiadiazol-2-yl]-methyl-thiocarbamic acid ethyl ester] |  | 80 to 100 | 0 to 80 | 137 to 140 |
| CSCC(C)(C)C(=O)OCC(C)(C)C(=O)N(C)c1nnc(-c2cncc(F)c2)s1 [Compound 91] |  | 80 to 100 | 80 to 100 | 90 to 93 |
| CCS(=O)(=O)C(C)CC(=O)N(C)c1nnc(-c2cccnc2)s1 (stereo not shown) [Compound 43] | 80 to 100 | 0 to 80 | < 0 | 175 to 177 |
| CN(C(=O)OCC[S+](C)[O-])c1nnc(-c2cccnc2)s1 (stereo not shown) [Compound 51] | 80 to 100 | 80 to 100 | 0 to 80 | 170 to 172 |
| CN(C(=O)CSCc1ccccc1)c1nnc(-c2cncc(F)c2)s1 [Compound 84] |  | 0 to 80 | 0 to 80 | 145 to 147 |
| CSCCC(=O)N(C)c1nnc(-c2cccnc2)s1 [Compound 1] | 80 to 100 | 80 to 100 | 0 to 80 | 99 to 101 |
| CSCCOC(=O)N(C)c1nnc(-c2cncc(F)c2)s1 [Compound 78, [5-(5-fluoropyridin-3-yl)-[1,3,4]thiadiazol-2-yl]-methylcarbamic acid 2-methylsulfanyl-ethyl ester] |  | 80 to 100 | 80 to 100 | 104 to 106 |
| CN(C(=O)CC[S+](C)[O-])c1nnc(-c2cccnc2)s1 (stereo not shown) [Compound 18, N-methyl-3-(methylsulfinyl)-N-(5-(pyridin-3-yl)-1,3,4-thiadiazol-2-yl)propanamide] | 80 to 100 | 80 to 100 | 0 to 80 | 138 to 140 |
| CC(=O)CCC(=O)N(C)c1nnc(-c2cccnc2)s1 [Compound 49, N-methyl-4-oxo-N-[5-(3-pyridyl)-1,3,4-thiadiazol-2-yl]pentanamide] | 80 to 100 | 0 to 80 | 0 to 80 | 146 to 147 |
| CSCC(C)(CN)C(=O)N(C)c1nnc(-c2cncc(F)c2)s1 (stereo not shown) [Compound 89, 2-(aminomethyl)-N-[5-(5-fluoro-3-pyridyl)-1,3,4-thiadiazol-2-yl]-N,2-dimethyl-3-methylsulfanyl-propanamide] |  | 0 to 80 | 0 to 80 | 154 to 157 |
| CSCCOC(=S)N(C)c1nnc(-c2cncc(F)c2)s1 [Compound 85, [5-(5-fluoro-pyridin-3-yl)-[1,3,4]thiadiazol-2-yl]-methyl-thiocarbamic acid 2-methylsulfanyl-ethyl ester] |  | 0 to 80 | 0 to 80 | 150 to 152 |
| C=CCSCC(C)C(=O)N(C)c1nnc(-c2cccnc2)s1 (stereo not shown) [Compound 94] |  | 80 to 100 | 80 to 100 | 43 to 46 |
| CSCC(C)C(=O)Nc1nnc(-c2cccnc2)s1 (stereo not shown) [Compound 92] |  | 0 to 80 | 0 to 80 | 176 |
| CN(C(=O)C1(CS(C)(=O)=O)CC1)c1nnc(-c2cccnc2)s1 [Compound 46] | 80 to 100 |  | 0 to 80 | 208 to 212 |
| CSCC(C)(C#N)C(=O)N(C)c1nnc(-c2cncc(F)c2)s1 (stereo not shown) [Compound 88] |  | 80 to 100 | 0 to 80 | 109 to 111 |
| CSCCNC(=O)N(C)c1nnc(-c2cncc(F)c2)s1 [Compound 79, 1-[5-(5-fluoro-pyridin-3-yl)-[1,3,4]thiadiazol-2-yl]-1-methyl-3-(2-methylsulfanyl-ethyl)-urea] |  | 80 to 100 | 0 to 80 | 100 to 104 |
| CSCC(C)C(=O)N(C)c1nnc(-c2cccnc2)s1 (stereo not shown) [Compound 28, N-2-Dimethyl-3-(methylthio)-N-(5-(pyridin-3-yl)-1,3,4-thiadiazol-2-yl)propanamide] | 80 to 100 | 80 to 100 | 0 to 80 |  |
| CN(C(=O)C(C)(C)C[S+](C)[O-])c1nnc(-c2cccnc2)s1 (stereo not shown) [Compound 32] | 80 to 100 | 80 to 100 | 80 to 100 |  |
| CN(C(=O)C(C)(C)CS(C)(=O)=NC#N)c1nnc(-c2cccnc2)s1 (stereo not shown) [Compound 42, N-2,2-trimethyl-3-(methyl-N-cyano-sulfoximinyl)-N-(5-(pyridin-3-yl)-1,3,4-thiadiazol-2-yl)propanamide] | 0 to 80 | 80 to 100 | 0 to 80 |  |

Source: patent publication US8912338B2, “Pesticidal compositions” (Dow AgroSciences LLC, priority 2010, dated 2014)
